Laboratory results taken from article PMC5610524, “Tools for the Individualized Therapy of Teicoplanin for Neonates and Children” (Antimicrobial Agents and Chemotherapy, 2017).

How the values were obtained:
[1] = Nonparametric population PK model (two-compartment, allometric, renal function) fitted to plasma teicoplanin concentrations in neonates, infants and children; format: in vivo, human; conditions: final model
Excerpt: Pharmacokinetic data from 57 children (39 children aged 1 month to 16 years old and 18 neonates with a postmenstrual age [PMA] between 26 and 44 weeks) were available for model building. Patients were prospectively enrolled from two different hospitals in Liverpool (Alder Hey NHS Children's Foundation Trust and Liverpool Women's Hospital) over a 21-month period (April 2013 and January 2015). These PK data have been reported previously in two separate population models ([1], [2]). […] Such an approach avoids the problem of having multiple pharmacokinetic models for the same drug, each with an arbitrarily chosen cutoff value for age or size.
Neonates with a PMA of ≤44 weeks received a loading dose of 16 mg/kg, followed by 8 mg/kg once daily via a 30-min intravenous (i.v.) infusion. Children >1 month old received three loading dosages of 10 mg/kg every 12 h, followed by 10 mg/kg once daily via an i.v. bolus infusion (2 to 5 min), according to the dosages currently recommended by the SPC ([11]). Plasma samples were collected during the first dosage interval and then at steady state (1, 3, 6, and 24 h postdose) on days 3 to 7 of therapy. Neonates weighing <1,000 g contributed two samples per dosing interval because of constraints on sample volume. The duration of the treatment course was at the discretion of the treating physician. All patients received teicoplanin for proven or suspected methicillin-resistant staphylococcal sepsis (due to either coagulase-negative staphylococci [CoNS] or MRSA) and/or central-line-associated bloodstream infection. Demographic variables included weight, height, age in years, PMA in weeks, postnatal age (PNA) in days, serum albumin concentration (in grams per liter), and serum creatinine concentration. The estimated glomerular filtration rate (eGFR) (Schwartz-Haycock) ([28]) was also available for each patient.
Teicoplanin concentrations were measured using a commercially available fluorescence polarization immunoassay (FPIA; Thermo Fisher Scientific, Germany). The limit of quantification (LOQ) was <3.0 mg/liter. The dynamic range was 3 to 100 mg/liter, and overall precision (intra- and interday variability) was <6%.
A PK model was fitted to the data using Pmetrics, version 1.4.2 for R, statistical package 3.2.2, which utilizes the nonparametric adaptive grid (NPAG) algorithm ([29]). The inverse of the estimated assay variance was used to weight the data. Initially, a standard two-compartment model with time-delimited zero-order i.v. input and first-order elimination from the central compartment was developed. The standard model is described by differential equations 1a and 1b below: (1a) dX(1)/dt=R(1)−(Kcp+Cl/V)⋅X(1)+[Kpc⋅X(2)] (1b) dX(2)/dt=Kcp⋅X(1)−Kpc⋅X(2) where X(1) and X(2) represent the amounts of teicoplanin (in milligrams) in the central (c) and peripheral (p) compartments, respectively; R(1) is the rate of infusion of the drug into the central compartment (in milligrams per hour); clearance (Cl) from the central compartment is measured in liters per hour; volume (V) is measured in liters; and the central and peripheral compartments are connected by the first-order rate constants Kcp and Kpc (measured per hour).
In neonates and children, clearance generally scales with size in a nonlinear manner that is best described using a power function. A scaling exponent of 0.75 is most frequently used (i.e., clearance is proportional to weight^0.75). In addition, physiological maturation may also affect clearance, and this is especially important for neonates and young infants ([30], [31]). In the model-building process, we switched from using clearance to using Ke (measured per hour) as the first-order elimination rate constant, where Ke is calculated as Cl/V and is proportional to weight^−0.25. While it is possible to estimate the scaling exponents directly, we chose to fix these values as previously described by others ([24], [30], [31]). […]

[2] = BestDose multiple-model Bayesian adaptive dose optimization software, individual simulations for an infant and an older child; parameters: species or system human; conditions: trapezoidal approximation to hourly software predictions
Excerpt: We incorporated the final population PK model into a teicoplanin multiple-model Bayesian adaptive dosing controller (the software “cartridge”). The controller is based on the concepts and software (BestDose) developed by the University of Southern California Laboratory for Applied Pharmacokinetics and Bioinformatics (LAPKB) (http://www.lapk.org) ([35], [36]). The teicoplanin cartridge included the final structural model equations relating input (dosing information) to output (concentrations of the drug in plasma) and the discrete joint probability distribution of the values of the equation variables (PK parameters) in the population, consisting of a discrete number of support points and their associated probabilities (the Bayesian prior). […]
The dose optimization software was tested by comparing the estimated predicted PK profile plot against the observations, as well as by the linear regression of the observed-versus-predicted concentrations for each individual patient. From the predicted concentrations based on the median individual Bayesian posterior parameter distribution, we calculated the bias, which is equal to the mean weighted predicted error (∑ wpe/N), where wpe is (predicted concentration − actual concentration)/(SD for each prediction/observation), N is the number of observations, and the percentage of bias. […]

## teicoplanin
[1]; n = 57, occasion 1 (<96 h), Volume = V0 · (wt/70), population mean
  V01, weight-standardized volume of the central compartment (V0), mean: 22.636 L
[1]; n = 57, occasion 1 (<96 h), Volume = V0 · (wt/70), population median
  V01, weight-standardized volume of the central compartment (V0), median: 19.52 L
[1]; n = 57, occasion 1 (<96 h), standardized to 70 kg, Ke = Ke0 · (wt/70)^−0.25 · Renal, population median
  Ke01, weight-standardized elimination rate constant (Ke0), median: 0.03 h⁻¹
[1]; n = 57, occasion 2 (samples ≥96 h), standardized to 70 kg, population mean
  Ke02, weight-standardized elimination rate constant (Ke0), mean: 0.036 h⁻¹
[1]; n = 57, occasion 2 (≥96 h), Volume = V0 · (wt/70), population mean
  V02, weight-standardized volume of the central compartment (V0), mean: 22.472 L
[1]; n = 57, occasion 2 (≥96 h), Volume = V0 · (wt/70), population median
  V02, weight-standardized volume of the central compartment (V0), median: 22.7 L
[1]; n = 57, occasion 2 (≥96 h), standardized to 70 kg, population median
  Ke02, weight-standardized elimination rate constant (Ke0), median: 0.025 h⁻¹
[1]; n = 57, patients >3 months old, population mean
  pw, power function (Renal = eGFR^pw), mean: 0.125
[1]; n = 57, patients >3 months old, population median
  pw, power function (Renal = eGFR^pw), median: 0.07
[1]; n = 57, population mean
  Kcp, first-order intercompartmental rate constant, mean: 0.490 h⁻¹
  Kpc, first-order intercompartmental rate constant, mean: 0.214 h⁻¹
[1]; n = 57, population median
  Kcp, first-order intercompartmental rate constant, median: 0.23 h⁻¹
  Kpc, first-order intercompartmental rate constant, median: 0.12 h⁻¹
[1]; n = 57 neonates and children, i.v., occasion 1 (samples <96 h after treatment initiation), standardized to 70 kg, Ke = Ke0 · (wt/70)^−0.25 · Renal, population mean
  Ke01, weight-standardized elimination rate constant (Ke0), mean: 0.038 h⁻¹
[2]; Patient 1 (infant, 5 months, 6.3 kg, eGFR 63.84 ml/min/1.73 m^2)
  Median (range) 24-h AUC along the treatment course: 493.8 (355.8–574) mg · h/liter
[2]; Patient 2 (child, 16.3 kg, eGFR 108.41 ml/min/1.73 m^2)
  Median (range) 24-h AUC along the treatment course: 368.1 (318.9–388.4) mg · h/liter
